Measurements as given in patent US11147272B2, “Pyridone compounds and agricultural and horticultural fungicides comprising the same as active ingredients” (MITSUI CHEMICALS AGRO, INC., priority 2017, dated 2021).

Key:
[1] = system: Blumeria graminis f. sp. hordei; test: Test Example D: Powdery mildew on barley; settings: Powdery mildew on barley; control value class
Magnaporthe grisea = test: whole plant or invertebrate; assay type: in vivo; settings: Blast on rice; control value class
[2] = system: Colletotrichum orbiculare; test: Test Example H: Anthracnose on cucumber; settings: Anthracnose on cucumber; 250 ppm spray, 6 to 10 days after inoculation
Puccinia recondita = test: Test Example E: Brown rust on wheat; assay type: in vivo; settings: Brown rust on wheat; control value class
Alternaia brassicicola = test: Test Example C: Alternaria sooty spot on cabbage; assay type: in vivo; settings: Alternaria sooty spot on cabbage; control value class
Excerpt: Seeds of a test plant (cabbage variety: Shikidori) were planted and cultivated until the cotyledons extended.
<Control Value> Control value=100{1−(n/3)}

Botrytis cinerea = test: Test Example B: Gray mold on tomato; settings: Gray mold on tomato; control value class
Phytophthora infestans = test: whole plant or invertebrate; assay type: in vivo; settings: Late blight on tomato; control value class
Plasmopara viticola = test: Test Example G: Downy mildew on vine; settings: Downy mildew on vine; 250 ppm spray, 7 to 10 days after inoculation

Compound | Test D control value [1] | Test A control value (Magnaporthe grisea) | Test H control value [2] | Test E control value (Puccinia recondita) | Test C control value (Alternaia brassicicola) | Test B control value (Botrytis cinerea) | Test F control value (Phytophthora infestans) | Test G control value (Plasmopara viticola)
CCc1ccc(=O)n(C)c1-c1ccc(F)cc1Cl [compound 314] | H (more than 50% control value) | L (50% or less control value) | L (50% or less control value) | H (more than 50% control value) | L (50% or less control value) | L (50% or less control value) | L (50% or less control value) | L (50% or less control value)
CCCC1=C(c2ccc(F)cc2Cl)N(CC)C(=S)CC1 [compound 315] | H (more than 50% control value) | L (50% or less control value) | L (50% or less control value) | L (50% or less control value) | L (50% or less control value) | L (50% or less control value) | L (50% or less control value) | L (50% or less control value)
CCc1cc(Cl)c(=O)n(C)c1-c1ccc(F)cc1Cl [compound 316] | L (50% or less control value) | L (50% or less control value) | H (more than 50% control value) | H (more than 50% control value) | H (more than 50% control value) | H (more than 50% control value) | H (more than 50% control value) | H (more than 50% control value)
CCc1cc(Br)c(=O)n(C)c1-c1ccc(F)cc1Cl [compound 317] | L (50% or less control value) | L (50% or less control value) | H (more than 50% control value) | H (more than 50% control value) | H (more than 50% control value) | H (more than 50% control value) | H (more than 50% control value) | H (more than 50% control value)
CCCc1ccc(=O)n(CC)c1-c1ccc(OC)cc1Cl [compound 318] | H (more than 50% control value) | L (50% or less control value) | H (more than 50% control value) | H (more than 50% control value) | H (more than 50% control value) | H (more than 50% control value) | H (more than 50% control value) | L (50% or less control value)
CCc1ccc(=O)n(CC)c1-c1ccc(OC)cc1Cl [compound 319] | H (more than 50% control value) | L (50% or less control value) | H (more than 50% control value) | H (more than 50% control value) | H (more than 50% control value) | H (more than 50% control value) | L (50% or less control value) | L (50% or less control value)
CCCc1cc(Cl)c(=O)n(CC)c1-c1ccc(OC)cc1Cl [compound 320] | H (more than 50% control value) | H (more than 50% control value) | H (more than 50% control value) | H (more than 50% control value) | H (more than 50% control value) | H (more than 50% control value) | H (more than 50% control value) | H (more than 50% control value)
CCCc1cc(Br)c(=O)n(CC)c1-c1ccc(OC)cc1Cl [compound 321] | H (more than 50% control value) | H (more than 50% control value) | H (more than 50% control value) | H (more than 50% control value) | H (more than 50% control value) | H (more than 50% control value) | L (50% or less control value) | H (more than 50% control value)
CCc1ccc(=O)n(C)c1-c1ccc(OC)cc1Cl [compound 322] | L (50% or less control value) | L (50% or less control value) | H (more than 50% control value) | H (more than 50% control value) | L (50% or less control value) | H (more than 50% control value) | L (50% or less control value) | L (50% or less control value)
CCCC1=C(c2ccc(F)cc2Cl)N(C)C(=O)CC1 [compound 323] | L (50% or less control value) | L (50% or less control value) | L (50% or less control value) | L (50% or less control value) | L (50% or less control value) | H (more than 50% control value) | L (50% or less control value) | L (50% or less control value)
CCc1cc(Cl)c(=O)n(C)c1-c1ccc(OC)cc1Cl [compound 324] | L (50% or less control value) | L (50% or less control value) | H (more than 50% control value) | H (more than 50% control value) | H (more than 50% control value) | H (more than 50% control value) | L (50% or less control value) | H (more than 50% control value)
CCc1cc(Br)c(=O)n(C)c1-c1ccc(OC)cc1Cl [compound 325] | L (50% or less control value) | L (50% or less control value) | H (more than 50% control value) | H (more than 50% control value) | H (more than 50% control value) | H (more than 50% control value) | L (50% or less control value) | H (more than 50% control value)
CCn1c(-c2c(F)cc(F)cc2F)c(C(Br)=CBr)cc(Cl)c1=O [compound 326] | H (more than 50% control value) | H (more than 50% control value) | H (more than 50% control value) | H (more than 50% control value) | H (more than 50% control value) | H (more than 50% control value) | L (50% or less control value) | L (50% or less control value)
CCc1cc(Cl)c(=O)n(CC)c1-c1ccc(OC)cc1Cl [compound 327] | L (50% or less control value) | H (more than 50% control value) | H (more than 50% control value) | H (more than 50% control value) | H (more than 50% control value) | H (more than 50% control value) | H (more than 50% control value) | H (more than 50% control value)
